# Structures can show the parent of a compound that is named as a salt.
# Biological target: human PDE4B1 (Homo sapiens (Human), UniProt Q07343)
# Assay: TR-FRET assay using the LANCE Ultra cAMP kit to determine the activity of hPDE4B1
# Format: biochemical
# Settings: IC50 inhibition of PDE4B, mean
# Text: TR-FRET Assay Using the LANCE® Ultra cAMP Kit to Determine the Activity of hPDE4B1
# The effects of the compounds on the activity of the human PDE4B1 was quantified by measuring the production of 5′AMP from cAMP using a human recombinant enzyme expressed in Sf9 cells and the LANCE® Ultra cAMP kit, a TR-FRET detection method from PerkinElmer. The human PDE4B1 enzyme was purchased from SignalChem Lifesciences (Catalog# P92-31BG, Lot# H296-2).
# The test compound, reference compound or water (control) was mixed with the enzyme (0.96 U) in a reaction buffer containing 50 mM Tris-HCl, 50 mM MgCl2 and 5 mM DTT (pH 8.5). Thereafter, the reaction was initiated by addition of 500 nM cAMP (substrate) and the mixture was incubated for 30 minutes at room temperature. For control basal measurements, the enzyme was omitted from the reaction mixture. After 30 minutes, the reaction was stopped and diluted by a factor of 100 with the reaction buffer supplemented with 500 μM IBMX. The fluorescence donor (europium chelate-labeled cAMP) and the fluorescence acceptor (anti-cAMP antibody labeled with the ULight™ dye) were then added together with 500 μM IBMX to a 10 μl aliquot. After 60 minutes, the fluorescence transfer corresponding to the amount of residual cAMP was measured at λex=337 nm, λem=620 nm and λem=665 nm using a microplate reader (PHERAstar, BMG). The enzyme activity was determined by dividing the signal measured at 665 nm by that measured at 620 nm (ratio) multiplied by 10000. The results were expressed as percent inhibition of the control enzyme activity. IC50 values (IC50=concentration causing a half-maximal inhibition of control specific activity) were derived from dose response measurements with ten different concentrations (n=3; N=1-3).
# Several compounds according to the invention are tested with above mentioned assay.
# Sequence of human PDE4B1 (Q07343 whole entry): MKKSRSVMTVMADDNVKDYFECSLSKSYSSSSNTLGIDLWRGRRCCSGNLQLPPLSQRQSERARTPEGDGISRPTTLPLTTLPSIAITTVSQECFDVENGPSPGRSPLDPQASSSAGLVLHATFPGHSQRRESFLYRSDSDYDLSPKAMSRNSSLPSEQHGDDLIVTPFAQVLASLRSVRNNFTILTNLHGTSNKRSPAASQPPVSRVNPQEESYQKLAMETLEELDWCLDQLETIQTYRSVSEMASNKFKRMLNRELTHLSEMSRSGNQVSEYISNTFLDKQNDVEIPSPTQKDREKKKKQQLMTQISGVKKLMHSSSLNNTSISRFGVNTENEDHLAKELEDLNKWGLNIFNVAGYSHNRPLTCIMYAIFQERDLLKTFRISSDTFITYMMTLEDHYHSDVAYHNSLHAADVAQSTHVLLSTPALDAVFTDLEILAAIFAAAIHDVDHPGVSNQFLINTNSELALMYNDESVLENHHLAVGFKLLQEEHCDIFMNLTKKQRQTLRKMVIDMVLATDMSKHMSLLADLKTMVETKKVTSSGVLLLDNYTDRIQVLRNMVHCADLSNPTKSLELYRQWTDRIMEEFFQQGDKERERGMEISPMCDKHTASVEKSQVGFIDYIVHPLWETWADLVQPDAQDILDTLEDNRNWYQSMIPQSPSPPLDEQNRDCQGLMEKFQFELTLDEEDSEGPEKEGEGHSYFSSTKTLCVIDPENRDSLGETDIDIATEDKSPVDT
row,IC50 [µM],Compound
1,< 0.1,"CCc1ccnc(-c2cnc(N3CC4(CC4)c4ccc(C(=O)N5CCCC5)cc43)nc2)c1 [Compound 275, [1-[5-(4-Ethyl-pyridin-2-yl)-pyrimidin-2-yl]-spiro[1,2-dihydro-indole-3,1′-cyclopropane]-6-yl]-pyrrolidin-1-yl-methanone]"
2,< 0.1,"CN(C)c1ccnc(-c2cnc(N3CC4(CC4)c4ccc(C(=O)N5CCCC5)cc43)nc2)c1 [Compound 276, [1-[5-(4-Dimethylamino-pyridin-2-yl)-pyrimidin-2-yl]-spiro[1,2-dihydro-indole-3,1′-cyclopropane]-6-yl]-pyrrolidin-1-yl-methanone]"
3,< 0.1,"CN(CCO)C(=O)c1ccc2c(c1)N(c1ncc(-c3cccc(S(C)(=O)=O)c3)cn1)CC21CC1 [Compound 277, N-(2-Hydroxy-ethyl)-N-methyl-1-[5-(3-methylsulfonyl-phenyl)-pyrimidin-2-yl]-spiro[1,2-dihydro-indole-3,1′-cyclopropane]-6-carboxylic acid amide]"
4,< 0.1,"O=C(c1ccc2c(c1)N(c1ncc(-c3ccccc3F)cn1)CC21CC1)N(CCO)C1CC1 [Compound 278, N-Cyclopropyl-1-[5-(2-fluorophenyl)-pyrimidin-2-yl]-N-(2-hydroxy-ethyl]-spiro[1,2-dihydro-indole-3,1′-cyclopropane]-6-carboxylic acid amide]"
5,< 0.1,"CN(CCO)C(=O)c1ccc2c(c1)N(c1ncc(-c3cccc(O)n3)cn1)CC21CC1 [Compound 280, N-(2-Hydroxy-ethyl)-1-[5-(6-hydroxy-pyridin-2-yl)-pyrimidin-2-yl]-N-methyl-spiro[1,2-dihydro-indole-3,1′-cyclopropane]-6-carboxylic acid amide]"
6,< 0.1,"CN(CCO)C(=O)c1ccc2c(c1)N(c1ncc(-c3cccc([S+](C)[O-])c3)cn1)CC21CC1 (centres unmarked) [Compound 281, N-(2-Hydorxy-ethyl)-N-methyl-1-[5-[3-(methylsulfinyl)-phenyl]pyrimidin-2-yl]-spiro[1,2-dihydro-indole-3,1′-cyclopropane]-6-carboxylic acid amide]"
7,< 0.1,"COc1cc(C)nc(-c2cnc(N3CC4(CC4)c4ccc(C(=O)N(C)CCO)cc43)nc2)c1 [Compound 282, N-(2-Hydroxy-ethyl)-1-[5-(4-methoxy--methyl-pyridin-2-yl)-pyrimidin-2-yl]-N-methyl-spiro[1,2-dihydro-indole-3,1′-cyclopropane]-6-carboxylic acid amide]"
8,< 0.1,"C[C@@H](O)CN(C)C(=O)c1ccc2c(c1)N(c1ncc(-c3ccccc3F)cn1)CC21CC1 [Compound 283, 1-[5-(2-Fluorophenyl)-pyrimidin-2-yl)-N-[(2R)-2-hydroxy-propyl]-N-methyl-spiro[1,2-dihydro-indole-3,1′-cyclopropane]-6-carboxylic acid amide]"
9,< 0.1,"C[C@H](O)CN(C)C(=O)c1ccc2c(c1)N(c1ncc(-c3ccccc3F)cn1)CC21CC1 [Compound 284, 1-[5-(2-Fluorophenyl)-pyrimidin-2-yl]-N-[(2S)-2-hydroxy-propyl]-N-methyl-spiro[1,2-dihydro-indole-3,1′-cyclopropane]-6-carboxylic acid amide]"
10,< 0.1,"CC(CO)N(C)C(=O)c1ccc2c(c1)N(c1ncc(-c3ccccc3F)cn1)CC21CC1 (centres unmarked) [Compound 285, 1-[5-(2-Fluorophenyl)-pyrimidin-2-yl]-N-(2-hydroxy-1-methyl-ethyl)-N-methyl-spiro[1,2-dihydro-indole-3,1′-cyclopropane]-6-carboxylic acid amide]"
11,< 0.1,"Cc1cccc(-c2cnc(N3CC4(CC4)c4ccc(C(=O)N5CCNC(=O)C5)cc43)nc2)n1 [Compound 286, 4-[1-[5-(6-Methyl-pyridin-2-yl)-pyrimidin-2-yl]-spiro[1,2-dihydro-indole-3,1′-cyclopropane]-6-carbonyl]-piperazin-2-one]"
12,< 0.1,"CN(CCO)C(=O)c1ccc2c(c1)N(c1ncc(-c3cc([S+](C)[O-])ccc3F)cn1)CC21CC1 (centres unmarked) [Compound 287, 1-[5-[2-Fluoro-5-(methylsulfinyl)-phenyl]-pyrimidin-2-yl]-N-(2-hydroxy-ethyl)-N-methyl-spiro[1,2-dihydro-indole-3,1′-cyclopropane]-6-carboxylic acid amide]"
13,< 0.1,"CN(CCO)C(=O)c1ccc2c(c1)N(c1ncc(-c3cc([S+](C)[O-])ccn3)cn1)CC21CC1 (centres unmarked) [Compound 288, N-(2-Hydroxy-ethyl)-N-methyl-1-[5-[4-(methylsulfinyl)-pyridin-2-yl]-pyrimidin-2-yl]-spiro[1,2-dihydro-indole-3,1′-cyclopropane]-6-carboxylic acid amide]"

# Continued, molecule first:
row,Compound,IC50 [µM]
1,"Nc1ccnc(-c2cnc(N3CC4(CC4)c4ccc(C(=O)N5CC6CC5CN6)cc43)nc2)c1 (centres unmarked) [Compound 263, [1-[5-(4-Amino-pyridin-2-yl)-pyrimidin-2-yl]-spiro[1,2-dihydro-indole-3,1′-cyclopropane]-6-yl]-(2,5-diazabicyclo[2.2.1]heptan-2-yl)-methanone dihydrochloride]",< 0.1
2,"CN(CCO)C(=O)c1ccc2c(c1)N(c1ncc(-c3cccc(O)c3)cn1)CC21CC1 [Compound 264, N-(2-Hydroxy-ethyl)-1-[5-(3-hydroxyphenyl)-pyrimidin-2-yl]-N-methyl-spiro[1,2-dihydro-indole-3,1′-cyclopropane]-6-carboxylic acid amide]",< 0.1
3,"O=C1CN(C(=O)c2ccc3c(c2)N(c2ncc(-c4cc(O)ccn4)cn2)CC32CC2)CCN1 [Compound 265, 4-[1-[5-(4-Hydroxy-pyridin-2-yl)-pyrimidin-2-yl]-spiro[1,2-dihydro-indole-3,1′-cyclopropane]-6-carbonyl]-piperazin-2-one]",< 0.1
4,"CCc1cccc(-c2cnc(N3CC4(CC4)c4ccc(C(=O)N(C)CCO)cc43)nc2)c1 [Compound 266, 1-[5-(3-Ethyl-phenyl)-pyrimidin-2-yl]-N-(2-hydroxy-ethyl)-N-methyl-spiro[1,2-dihydro-indole-3,1′-cyclopropane]-6-carboxylic acid amide]",< 0.1
5,"CN(CCO)C(=O)c1ccc2c(c1)N(c1ncc(-c3cccc(C4CC4)c3)cn1)CC21CC1 [Compound 267, 1-[5-(3-Cyclopropyl-phenyl)-pyrimidin-2-yl]-N-(2-hydroxy-ethyl)-N-methyl-spiro[1,2-dihydro-indole-3,1′-cyclopropane]-6-carboxylic acid amide]",< 0.1
6,"CCc1cccc(-c2cnc(N3CC4(CC4)c4ccc(C(=O)N(C)CCO)cc43)nc2)n1 [Compound 268, 1-[5-(6-Ethyl-pyridin-2-yl)-pyrimidin-2-yl]-N-(2-hydroxy-ethyl)-N-methyl-spiro[1,2-dihydro-indole-3,1′-cyclopropane]-6-carboxylic acid amide]",< 0.1
7,"CN(CCO)C(=O)c1ccc2c(c1)N(c1ncc(-c3cccc(C4CC4)n3)cn1)CC21CC1 [Compound 269, 1-[5-(6-Cyclopropyl-pyridin-2-yl)-pyrimidin-2-yl]-N-(2-hydroxy-ethyl)-N-methyl-spiro[1,2-dihydro-indole-3,1′-cyclopropane]-6-carboxylic acid amide]",< 0.1
8,"CCc1ccnc(-c2cnc(N3CC4(CC4)c4ccc(C(=O)N(C)C)cc43)nc2)c1 [Compound 270, 1-[5-(4-Ethyl-pyridin-2-yl)-pyrimidin-2-yl]-N,N-dimethyl-spiro[1,2-dihydro-indole-3,1′-cyclopropane]-6-carboxylic acid amide]",< 0.1
9,"CN(C)C(=O)c1ccc2c(c1)N(c1ncc(-c3cc(N(C)C)ccn3)cn1)CC21CC1 [Compound 271, 1-[5-(4-Dimethylamino-pyridin-2-yl)-pyrimidin-2-yl]-N,N-dimethyl-spiro[1,2-dihydro-indole-3,1′-cyclopropane]-6-carboxylic acid amide]",< 0.1
10,"CN(CCO)C(=O)c1ccc2c(c1)N(c1ncc(-c3cc(N(C)C)ccn3)cn1)CC21CC1 [Compound 272, 1-[5-(4-Dimethylamino-pyridin-2-yl)-pyrimidin-2-yl]-N-(2-hydroxy-ethyl)-N-methyl-spiro[1,2-dihydro-indole-3,1′-cyclopropane]-6-carboxylic acid amide]",< 0.1
11,"CN(CCO)C(=O)c1ccc2c(c1)N(c1ncc(-c3cccc(Cl)c3)cn1)CC21CC1 [Compound 273, 1-[5-(3-Chlorophenyl)-pyrimidin-2-yl]-N-(2-hydroxy-ethyl)-N-methyl-spiro[1,2-dihydro-indole-3,1′-cyclopropane]-6-carboxylic acid amide]",< 0.1
12,"O=C(c1ccc2c(c1)N(c1ncc(-c3cccnn3)cn1)CC21CC1)N1CC2CC1CN2 (centres unmarked) [Compound 274, (2,5-Diazabicyclo[2.2.1]heptan-2-yl)-[1-(5-pyridazin-3-yl-pyrimidin-2-yl)-spiro[1,2-dihydro-indole-3,1′-cyclopropane]-6-yl]-methanone hydrochloride]",< 0.1
13,"CC(=O)Nc1ccnc(-c2cnc(N3CC4(CC4)c4ccc(C(=O)N5CC6CC5CN6)cc43)nc2)c1 (centres unmarked) [Compound 279, N-(2-(2-(6′-(2,5-diazabicyclo[2.2.1]heptane-2-carbonyl)spiro[cyclopropane-1,3′-indolin]-1′-yl)pyrimidin-5-yl)pyridin-4-yl)acetamide.HCl]",< 0.1

# — patent US10189854B2, “Substituted pyrimidine compounds” (Grünenthal GmbH, priority 2014, dated 2019)
